# Measured values published in patent publication US7728028B2, “Substituted imidazoline compounds” (Gruenenthal GmbH, priority 2005, dated 2010).
# Target: T1, human μ-opiate receptor (Homo sapiens, UniProt P35372)
# T1 construct: purchased PerkinElmer Life Sciences, Zaventem, Belgium RB-HOM; host or cells: CHO-K1 cells (recombinant expression; membrane preparation)
# Test: Affinity for the human μ-opiate receptor ([3H]-naloxone displacement, SPA)
# Details: Table 2, Examples 11-161; test substance 1 μmole/l; inhibition of specific [3H]-naloxone binding; CHO-K1 membranes; read-out: μ-Opioid receptor, % inhibition [1 μM]
# Experimental: Investigations on the Efficacy of the Compounds According to the Invention Method for Determining the Affinity for the Human μ-Opiate Receptor
# The receptor affinity for the human μ-opiate receptor is determined in a homogeneous batch in microtiter plates. For this purpose dilution series of the substances to be tested are incubated with a receptor membrane preparation (15-40 μg protein/250 μl incubation batch) of CHO-K1 cells, which express the human μ-opiate receptor (RB-HOM receptor membrane preparation from PerkinElmer Life Sciences, Zaventem, Belgium), in the presence of 1 nmole/l of the radioactive ligand [^3H]-naloxone (NET719, PerkinElmer Life Sciences company, Zaventem, Belgium) and 1 mg WGA-SPA beads (wheat germ agglutinin SPA beads from Amersham/Pharmacia, Freiburg, Germany) in a total volume of 250 μl for 90 minutes at room temperature. 50 mmole/l of Tris-HCl supplemented with 0.06% bovine serum albumin is used as incubation buffer. In order to determine the non-specific binding, 100 μmole/l of naloxone is additionally added. After the end of the 90 minutes' incubation time the microtiter plates are centrifuged for 20 minutes at 1000 g and the radioactivity is measured in a beta counter (Microbeta-Trilux, PerkinElmer Wallac, Freiburg, Germany). The percentage displacement of the radioactive ligand from its binding to the human μ-opiate receptor at a concentration of the test substances of 1 μmole/l is determined and is given as percentage inhibition of the specific binding.
# T1 sequence (P35372 whole entry): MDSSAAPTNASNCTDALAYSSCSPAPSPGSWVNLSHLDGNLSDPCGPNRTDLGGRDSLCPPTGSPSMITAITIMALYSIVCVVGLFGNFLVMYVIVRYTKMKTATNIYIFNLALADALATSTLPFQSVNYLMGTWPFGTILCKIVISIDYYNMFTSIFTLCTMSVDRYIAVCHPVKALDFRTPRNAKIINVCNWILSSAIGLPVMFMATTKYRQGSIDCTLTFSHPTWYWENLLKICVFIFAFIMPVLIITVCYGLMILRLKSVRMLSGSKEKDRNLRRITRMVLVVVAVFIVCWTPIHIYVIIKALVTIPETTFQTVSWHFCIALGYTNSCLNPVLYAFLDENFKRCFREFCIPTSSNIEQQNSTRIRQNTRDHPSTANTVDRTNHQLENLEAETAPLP
row,SMILES,inhibition at 1 µM
1,"CCCN1C=NC(C(=O)OC)(C(C)CC)C1CC1CCC(C(c2ccc(Cl)cc2)N(C)C)CC1 (stereo not shown) [Example 62, 4-sec-butyl-5-{4-[(4-chlorophenyl)-dimethylaminomethyl]-cyclohexylmethyl}-1-propyl-4,5-dihydro-1H-imidazole-4-carboxylic acid methyl ester]",98%
2,"CCCN1C=NC(CCC(=O)OC)(C(=O)OC)C1CC1CCC(C(c2ccc(F)cc2)N(C)C)CC1 (stereo not shown) [Example 159, 5-{4-[dimethylamino-(4-fluorophenyl)-methyl]-cyclohexylmethyl}-4-(2-methoxycarbonylethyl)-1-propyl-4,5-dihydro-1H-imidazole-4-carboxylic acid methyl ester]",79%
3,"CCC(C)C1(C(=O)OC)N=CN(C2CCCCC2)C1CC1CCC(C(c2ccc(Cl)cc2)N(C)C)CC1 (stereo not shown) [Example 54, Methyl-4-sec-butyl-5-((4-((4-chlorophenyl)(dimethylamino)methyl)cyclohexyl)methyl)-1-cyclohexyl-4,5-dihydro-1H-imidazole-4-carboxylate]",100%
4,"CCCCN1C=NC(CC(C)C)(C(=O)OC)C1C1CCC(C(c2ccc(Cl)cc2)N(C)C)CC1 (stereo not shown) [Example 31, 1-butyl-5-{4-[(4-chlorophenyl)-dimethylaminomethyl]-cyclohexyl}-4-isobutyl-4,5-dihydro-1H-imidazole-4-carboxylic acid methyl ester]",91%
5,"CCCCN1C=NC(CSCc2ccccc2)(C(=O)OC)C1C1CCC(C(c2ccc(Cl)cc2)N(C)C)CC1 (stereo not shown) [Example 69, 4-benzylsulfanylmethyl-1-butyl-5-{4-[(4-chlorophenyl)-dimethylaminomethyl]-cyclohexyl}-4,5-dihydro-1H-imidazole-4-carboxylic acid methyl ester]",95%
6,"CCCCC1(C(=O)OC)N=CN(C2CCCCC2)C1C1CCC(C(c2ccc(Cl)cc2)N(C)C)CC1 (stereo not shown) [Example 16, 4-butyl-5-{4-[(4-chlorophenyl)-dimethylaminomethyl]-cyclohexyl}-1-cyclohexyl-4,5-dihydro-1H-imidazole-4-carboxylic acid methyl ester]",92%
7,"COC(=O)CCC1(C(=O)OC)N=CN(C2CCCCC2)C1CC1CCC(C(c2ccc(Cl)cc2)N(C)C)CC1 (stereo not shown) [Example 53, 5-{4-[(4-chlorophenyl)-dimethylaminomethyl]-cyclohexylmethyl}-1-cyclohexyl-4-(2-methoxycarbonylethyl)-4,5-dihydro-1H-imidazole-4-carboxylic acid methyl ester]",96%
8,"COC(=O)C1(CC(C)C)N=CN(C2CCCCC2)C1C1CCC(C(c2ccc(Cl)cc2)N(C)C)CC1 (stereo not shown) [Example 14, 5-{4-[(4-chlorophenyl)-dimethylaminomethyl]-cyclohexyl}-1-cyclohexyl-4-isobutyl-4,5-dihydro-1H-imidazole-4-carboxylic acid methyl ester]",92%
9,"CCCN1C=NC(CCC)(C(=O)OC)C1CC1CCC(C(c2ccc(F)cc2)N(C)C)CC1 (stereo not shown) [Example 118, 5-{4-[dimethylamino-(4-fluorophenyl)-methyl]-cyclohexylmethyl}-1,4-dipropyl-4,5-dihydro-1H-imidazole-4-carboxylic acid methyl ester]",87%
10,"COC(=O)C1(C)N=CN(C2CCCCC2)C1CC1CCC(C(c2ccc(F)cc2)N(C)C)CC1 (stereo not shown) [Example 107, 1-cyclohexyl-5-{4-[dimethylamino-(4-fluorophenyl)-methyl]-cyclohexylmethyl}-4-methyl-4,5-dihydro-1H-imidazole-4-carboxylic acid methyl ester]",87%
11,"CCCC1(C(=O)OC)N=CN(CCc2ccccc2)C1CC1CCC(C(c2ccc(F)cc2)N(C)C)CC1 (stereo not shown) [Example 132, 5-{4-[dimethylamino-(4-fluorophenyl)-methyl]-cyclohexylmethyl}-1-phenethyl-4-propyl-4,5-dihydro-1H-imidazole-4-carboxylic acid methyl ester]",98%
12,"COC(=O)C1(CSC)N=CN(C2CCCCC2)C1CC1CCC(C(c2ccc(F)cc2)N(C)C)CC1 (stereo not shown) [Example 153, 1-cyclohexyl-5-{4-[dimethylamino-(4-fluorophenyl)-methyl]-cyclohexylmethyl}-4-methylsulfanylmethyl-4,5-dihydro-1H-imidazole-4-carboxylic acid methyl ester]",93%
13,"COC(=O)CCC1(C(=O)OC)N=CN(C2CCCCC2)C1CC1CCC(C(CCc2ccccc2)N(C)C)CC1 (stereo not shown) [Example 154, 1-cyclohexyl-5-[4-(1-dimethylamino-3-phenylpropyl)-cyclohexylmethyl]-4-(2-methoxycarbonylethyl)-4,5-dihydro-1H-imidazole-4-carboxylic acid methyl ester]",82%
14,"CCC(C)C1(C(=O)OC)N=CN(C2CCCCC2)C1CC1CCC(C(c2cccc(F)c2)N(C)C)CC1 (stereo not shown) [Example 148, 4-sec-butyl-1-cyclohexyl-5-{4-[dimethylamino-(3-fluorophenyl)-methyl]-cyclohexylmethyl}-4,5-dihydro-1H-imidazole-4-carboxylic acid methyl ester]",95%
15,"COC(=O)C1(Cc2ccc(Cl)cc2)N=CN(C2CCCCC2)C1C1CCC(C(c2cccc(F)c2)N(C)C)CC1 (stereo not shown) [Example 12, 4-(4-chlorobenzyl)-1-cyclohexyl-5-{4-[dimethylamino-(3-fluorophenyl)-methyl]-cyclohexyl}-4,5-dihydro-1H-imidazole-4-carboxylic acid methyl ester]",73%
16,"COC(=O)C1(CSC)N=CN(C2CCCCC2)C1CC1CCC(C(CCc2ccccc2)N(C)C)CC1 (stereo not shown) [Example 155, 1-cyclohexyl-5-[4-(1-dimethylamino-3-phenylpropyl)-cyclohexylmethyl]-4-methylsulfanylmethyl-4,5-dihydro-1H-imidazole-4-carboxylic acid methyl ester]",86%
17,"CCCCN1C=NC(Cc2ccc(Cl)cc2)(C(=O)OC)C1C1CCC(C(c2cccc(F)c2)N(C)C)CC1 (stereo not shown) [Example 30, 1-butyl-4-(4-chlorobenzyl)-5-{4-[dimethylamino-(3-fluorophenyl)-methyl]-cyclohexyl}-4,5-dihydro-1H-imidazole-4-carboxylic acid methyl ester]",89%
18,"COC(=O)C1(CSCc2ccccc2)N=CN(CCc2ccccc2)C1C1CCC(C(c2ccc(Cl)cc2)N(C)C)CC1 (stereo not shown) [Example 93, 4-benzylsulfanylmethyl-5-{4-[(4-chlorophenyl)-dimethylaminomethyl]-cyclohexyl}-1-phenethyl-4,5-dihydro-1H-imidazole-4-carboxylic acid methyl ester]",92%
19,"COC(=O)C1(CSC)N=CN(C2CCCCC2)C1CC1CCC(C(c2cccc(F)c2)N(C)C)CC1 (stereo not shown) [Example 149, 1-cyclohexyl-5-{4-[dimethylamino-(3-fluorophenyl)-methyl]-cyclohexylmethyl}-4-methylsulfanylmethyl-4,5-dihydro-1H-imidazole-4-carboxylic acid methyl ester]",99%
20,"COC(=O)C1(CSC)N=CN(C2CCCCC2)C1CC1CCC(C(c2ccc(Cl)cc2)N(C)C)CC1 (stereo not shown) [Example 55, 5-{4-[(4-chlorophenyl)-dimethylaminomethyl]-cyclohexylmethyl}-1-cyclohexyl-4-methylsulfanylmethyl-4,5-dihydro-1H-imidazole-4-carboxylic acid methyl ester]",91%
21,"COC(=O)C1(CSCc2ccccc2)N=CN(CCc2ccccc2)C1C1CCC(C(c2cccc(F)c2)N(C)C)CC1 (stereo not shown) [Example 92, 4-benzylsulfanylmethyl-5-{4-[dimethylamino-(3-fluorophenyl)-methyl]-cyclohexyl}-1-phenethyl-4,5-dihydro-1H-imidazole-4-carboxylic acid methyl ester]",95%
22,"CCCN1C=NC(CSCc2ccccc2)(C(=O)OC)C1C1CCC(C(c2ccc(Cl)cc2)N(C)C)CC1 (stereo not shown) [Example 60, 4-benzylsulfanylmethyl-5-{4-[(4-chlorophenyl)-dimethylaminomethyl]-cyclohexyl}-1-propyl-4,5-dihydro-1H-imidazole-4-carboxylic acid methyl ester]",95%
23,"CCCCN1C=NC(CCC(=O)OC)(C(=O)OC)C1CC1CCC(C(c2ccc(Cl)cc2)N(C)C)CC1 (stereo not shown) [Example 70, 1-butyl-5-{4-[(4-chlorophenyl)-dimethylaminomethyl]-cyclohexylmethyl}-4-(2-methoxycarbonylethyl)-4,5-dihydro-1H-imidazole-4-carboxylic acid methyl ester]",96%
24,"COC(=O)CCC1(C(=O)OC)N=CN(CCc2ccccc2)C1CC1CCC(C(c2ccc(Cl)cc2)N(C)C)CC1 (stereo not shown) [Example 94, 5-{4-[(4-chlorophenyl)-dimethylaminomethyl]-cyclohexylmethyl}-4-(2-methoxycarbonylethyl)-1-phenethyl-4,5-dihydro-1H-imidazole-4-carboxylic acid methyl ester]",97%
25,"CCCN1C=NC(CC(C)C)(C(=O)OC)C1C1CCC(C(c2ccc(Cl)cc2)N(C)C)CC1 (stereo not shown) [Example 24, 5-{4-[(4-chlorophenyl)-dimethylaminomethyl]-cyclohexyl}-4-isobutyl-1-propyl-4,5-dihydro-1H-imidazole-4-carboxylic acid methyl ester]",89%
